Results taken from patent publication US8791110B2 (priority 2006, dated 2014).
Like-named read-outs stand apart in the source and are kept apart here. Numbered stars: 1 amine (or outer) side, 2 acyl side, 3 side chain; on linkers, the order of the positions; unused ones are H or OH. Bridge positions count the residues as written; N and C are the ends. Square brackets hold non-standard residues; d marks the D form. Peptide text beside a SMILES is read from it. I, II: the chains in the order shown. Actinocin(9to1) = Cc1c2oc3c(C)ccc(C(=O)[*:1])c3nc-2c(C(=O)[*:2])c(N)c1=O; NMeV = CN[C@H](C(=O)O)C(C)C; Sar = CNCC(=O)O

Columns and labels:
[1] = test system: Candid 1; experiment: organism not typed; type: cell-based, Junín virus; conditions: read-out: EC50 Candid 1
[2] = test system: Tacaribe (TRVL 11573) virus; experiment: microbe, parasite or virus in culture; type: cell-based; conditions: Mammarenavirus tacaribeense, Vero
[3] = in vitro; conditions: African green monkey
[4] = test system: Vero cells
[5] = test system: Guanarito virus; experiment: microbe, parasite or virus in culture; type: cell-based; conditions: Mammarenavirus guanaritoense, Vero, 120 h, read-out: EC50 Category A NWA, Guanarito
[6] = test system: Machupo virus; experiment: microbe, parasite or virus in culture; type: cell-based; conditions: Mammarenavirus machupoense, Vero, 120 h, read-out: EC50 Category A NWA, Machupo
[7] = test system: Arenavirus; conditions: cited from earlier work
[8] = in vivo; cited from earlier work
[9] = in vivo; cited from earlier work; remark: listed apart in the source

## CN1CCN(C(=O)Nc2ccc(Cl)c(Cl)c2)CC1 [Compound 20013]
[1]
  EC50: > 50000 nM
[2]; 168 h, read-out: EC50 Tacaribe
  EC50: > 50000 nM
[3]
  CC50: > 50000 nM
[4]; African green monkey
  CC50: > 50000 nM

## CN1CCN(C(=S)Nc2ccc(Cl)c(Cl)c2)CC1 [Compound 313761, 4-methyl-piperazine-1-carbothioic acid (3,4-dichlorophenyl)-amide]
[1]
  EC50: 260 nM
[2]; 168 h, read-out: EC50 Tacaribe
  EC50: 140 nM
[2]; read-out: EC50 value in the CPE assay
  EC50: 140 nM
[5]
  EC50: 150 nM
[6]
  EC50: 300 nM
[3]
  CC50: 50000 nM
[4]
  toxicity / effect on cell growth at antiviral concentrations: active at non-toxic concentrations

## Cc1c2oc3c(C)ccc(C(=O)N[C@@H]4C(=O)N[C@H](C(C)C)C(=O)N5CCC[C@H]5C(=O)N(C)CC(=O)N(C)[C@@H](C(C)C)C(=O)O[C@@H]4C)c3nc-2c(C(=O)N[C@@H]2C(=O)N[C@H](C(C)C)C(=O)N3CCC[C@H]3C(=O)N(C)CC(=O)N(C)[C@@H](C(C)C)C(=O)O[C@@H]2C)c(N)c1=O [actinomycin D] (I: T[dV]P[Sar][NMeV] / II: T[dV]P[Sar][NMeV]; ester I:1-I:C, II:1-II:C; linker I:N-II:N via Actinocin(9to1))
[7]
  anti-Arenavirus activity: generally weak and non-specific

## NC12CC3CC(CC(C3)C1)C2 [amantadine]
[7]
  anti-Arenavirus activity: generally weak and non-specific

## CN(C)CCCN1c2ccccc2Sc2ccc(Cl)cc21 [chlorpromazine]
[7]
  anti-Arenavirus activity: generally weak and non-specific

## NC(=O)c1ncn([C@@H]2O[C@H](CO)[C@@H](O)[C@H]2O)n1 [ribavirin, Ribavirin]
[8]
  adverse effects: dose-related, reversible hemolytic anemia
[9]
  reproductive toxicity: teratogenicity and embryo lethality

## CN1CCN(CCCN2c3ccccc3Sc3ccc(C(F)(F)F)cc32)CC1 [trifluoroperazine]
[7]
  anti-Arenavirus activity: generally weak and non-specific
